Source: ChEMBL document CHEMBL1130469, “Prolyl endopeptidase inhibitors1: N-acyl derivatives of L-thioproline-pyrrolidine” (Bioorg Med Chem Lett, 1997)

These compounds were tested against T1, Prolyl endopeptidase (Rattus norvegicus, UniProt O70196) (assay: Inhibitory activity against rat brain Prolyl endopeptidase (PEP)).
T1 sequence (O70196 whole entry): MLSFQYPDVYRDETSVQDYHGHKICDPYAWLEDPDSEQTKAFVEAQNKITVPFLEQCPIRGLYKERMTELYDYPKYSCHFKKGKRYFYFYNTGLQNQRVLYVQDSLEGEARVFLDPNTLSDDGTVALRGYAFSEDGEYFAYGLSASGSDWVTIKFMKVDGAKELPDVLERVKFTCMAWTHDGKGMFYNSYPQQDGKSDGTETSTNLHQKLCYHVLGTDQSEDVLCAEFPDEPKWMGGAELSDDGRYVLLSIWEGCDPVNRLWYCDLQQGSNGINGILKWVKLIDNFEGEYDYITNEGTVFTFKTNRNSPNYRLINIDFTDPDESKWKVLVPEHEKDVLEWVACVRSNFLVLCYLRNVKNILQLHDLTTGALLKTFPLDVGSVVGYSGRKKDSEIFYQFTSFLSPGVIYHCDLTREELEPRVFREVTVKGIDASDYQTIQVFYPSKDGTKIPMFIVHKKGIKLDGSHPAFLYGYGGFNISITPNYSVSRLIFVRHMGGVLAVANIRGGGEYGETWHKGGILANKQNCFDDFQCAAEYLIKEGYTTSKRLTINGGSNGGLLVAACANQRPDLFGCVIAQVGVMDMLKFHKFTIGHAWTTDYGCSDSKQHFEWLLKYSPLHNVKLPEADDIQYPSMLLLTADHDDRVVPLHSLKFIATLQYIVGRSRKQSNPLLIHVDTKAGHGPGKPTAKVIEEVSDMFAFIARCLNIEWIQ

Row | IC50 [nM] | SMILES
1 | 38 | CCCCCCCCC(=O)N1CSC[C@H]1C(=O)N1CCCC1
2 | 73 | CCCCC/C=C(\C)C(=O)N1CCC[C@H]1C(=O)N1CCCC1
3 | 34 | CCCCC/C=C/C(=O)N1CCC[C@H]1C(=O)N1CCCC1
4 | 17 | CCCCCCC(=O)N1CSC[C@H]1C(=O)N1CCCC1
5 | 37 | CCCCC(=O)N1CSC[C@H]1C(=O)N1CCCC1
6 | 11 | CCCCCCCC(=O)N1CSC[C@H]1C(=O)N1CCCC1
7 | 207 | CCC/C=C/C=C(\C)C(=O)N1CCC[C@H]1C(=O)N1CCCC1
8 | 104 | CCCCCCCCC=CCCCCCCCC(=O)N1CSC[C@H]1C(=O)N1CCCC1
9 | 38 | CCCCCCCCCC(=O)N1CSC[C@H]1C(=O)N1CCCC1
10 | 80 | CCCCCCCCCCCCCC(=O)N1CSC[C@H]1C(=O)N1CCCC1
11 | 46 | CCCCCCCCCCCC(=O)N1CSC[C@H]1C(=O)N1CCCC1
12 | 167 | CCCC(=O)N1CSC[C@H]1C(=O)N1CCCC1
13 | 1160 | CCCCCCCCCCCCCCCCCCCC(=O)N1CSC[C@H]1C(=O)N1CCCC1
14 | 37 | CCCCCC(=O)N1CSC[C@H]1C(=O)N1CCCC1
15 | 42 | CCCCCCCCCCC(=O)N1CSC[C@H]1C(=O)N1CCCC1
16 | 904 | CCCCCCCCCCCCCCCCCC(=O)N1CSC[C@H]1C(=O)N1CCCC1
17 | 216 | CCCCCCCCCCCCCCCC(=O)N1CSC[C@H]1C(=O)N1CCCC1
